Earlier results on one compound are cited in US20240050377A1, “ORAL SOLID CANNABINOID OIL COMPOSITION FOR TREATING CENTRAL NERVOUS SYSTEM DISORDERS” (SOCIETE DES PRODUITS NESTLE S.A., priority 2021, published 2024).

Several values for one entry are separate records, joined by “and”; a condition that tells them apart may be missing. Equal values may be shown once. Read-outs that look alike come from different tables or passages of the source.

The conditions of series [1]: low pH of the stomach; simulated gastric fluid.
For series [2] the following is noted: humans.

With `C=C(C)[C@@H]1CCC(C)=C[C@H]1c1c(O)cc(CCCCC)cc1O` [CBD, cannabidiol], the “degradation in stomach environment” value in series [1] is “high levels of CBD degradation”. Besides, the mean half-life in series [2] (aerosol administration) was 1.1 to 2.4 h; in series [2] (oral lipid capsule administration), 2.95 h and 3.21 h; in series [2] (single oral administration), 1.09 to 1.97 h.
